Test [1] has as its system U2OS cells expressing GFP-tagged Sec61β. As to the kind of experiment: Time-lapse imaging of mitosis and nuclear envelope in U2OS cells expressing GFP-Sec61β. In kind it is cell-based. The settings on record: DKM 3-30 50 μM. As to the method:
FIGS. 4A-4C. DKM 3-30 disrupts nuclear envelope morphology during mitosis. (FIGS. 4A-4C) U2OS cells expressing GFP-tagged Sec61β were treated with vehicle (DMSO) or DKM 3-30 (50 μM) and the ER morphology of mitotic cells visualized by time-lapse fluorescence microscopy. Time (min) is indicated on each panel. Panels (FIGS. 4A, 4B) provide examples of mitotic cells. Enlarged images following mitosis show the nuclear envelope. White arrowheads indicate a GFP-Sec61β structure bisecting the nucleus of a cell incubated with DKM 3-30. […] Bottom panels indicate boxed region.
Fluorescence microscopy. SW620 and U2OS cells were transiently transfected with a plasmid encoding GFP-tagged Sec61β using fuGENE6 (Roche) according to the manufacturer's instructions. Transfected cells plated on poly-L-lysine treated coverslips were treated, washed in PBS, and fixed by incubation in 4% paraformaldehyde in PBS for 10 min. Fixed cells were washed extensively in PBS and nuclei stained by addition of 4′,6-diamidino-2-phenylindole (DAPI) (Thermo Fisher Scientific) for 10 min. Coverslips were mounted using Fluoromount-G (SouthernBiotech) and visualized using a DeltaVision Elite microscope outfitted with a 60× oil immersion objective. Acquired stacks of images of fixed cells were deconvolved and analyzed using SoftWoRx and ImageJ. […] Acquired images were analyzed using SoftWoRx and ImageJ.

Test [2] has as its system SW620 colorectal cancer cells. As to the kind of experiment: Serum-free cell survival of SW620 cells (Hoescht staining). The settings on record: 48 h, vs DMSO, average of n = 3/group. In kind it is cell-based. As for the experimental part: (§1) Cell Culture. SW620 cells were purchased from ATCC. SW620 cells were grown in L-15 media with 10% fetal bovine serum (FBS) in ambient CO2. U2OS cells were grown in DMEM media supplemented with 10% FBS at 37° C. with 5% CO2.
(§2) Survival and Proliferation Assays. Cells were plated the evening before the experiment, and allowed to adhere overnight. For serum-free cell survival assays, cells were plated in media not containing FBS. For cell proliferation assays, cells were plated in regular media. For the chemical genetics screen, cells were treated with either DMSO or the cysteine-reactive fragment for 48 h and cell viability was assessed by Hoescht stain using our previously described methods

The test system of test [3] is SW620 colorectal cancer cells. As to the kind of experiment: Cell proliferation of SW620 cells (Hoescht staining). It counts as cell-based. Particulars: 48 h, vs DMSO, average of n = 3/group. As to the method: as §1, §2
Test [4] relates to U2OS cells expressing GFP-tagged Sec61β. As to the kind of experiment: ER morphology by fluorescence microscopy in U2OS cells expressing GFP-Sec61β. In kind it is cell-based. As to the method: Fluorescence microscopy. SW620 and U2OS cells were transiently transfected with a plasmid encoding GFP-tagged Sec61β using fuGENE6 (Roche) according to the manufacturer's instructions. Transfected cells plated on poly-L-lysine treated coverslips were treated, washed in PBS, and fixed by incubation in 4% paraformaldehyde in PBS for 10 min. Fixed cells were washed extensively in PBS and nuclei stained by addition of 4′,6-diamidino-2-phenylindole (DAPI) (Thermo Fisher Scientific) for 10 min. Coverslips were mounted using Fluoromount-G (SouthernBiotech) and visualized using a DeltaVision Elite microscope outfitted with a 60× oil immersion objective. Acquired stacks of images of fixed cells were deconvolved and analyzed using SoftWoRx and ImageJ. For time-lapse imaging of live cells, transfected cells were plated on poly-L-lysine treated glass-bottom 4-well imaging chambers (Lab-Tek II; Thermo Fisher Scientific). Imaging was performed using a DeltaVision Elite microscope encased in a chamber that was maintained at 37° C. and was continuously perfused with humidified 5% CO2. Acquired images were analyzed using SoftWoRx and ImageJ.

Test [5] concerns MEF cells expressing human RTN4-GFP. As to the kind of experiment: Apoptosis (propidium iodine and Annexin-V, flow cytometry) in MEF cells expressing human RTN4-GFP. It counts as cell-based, mouse. The settings on record: DKM 3-30 50 μM, 0, 8 or 16 h. As to the method: FIG. 12. Effect of DKM 3-30 in Mouse Embryonic Fibroblast (MEF) cells expressing human RTN4. C1101 in human RTN4 is instead a serine in mouse RTN4. […] GFP or RTN4-GFP expressing MEF cells were treated with DKM 3-30 (50 μM) for 0, 8, or 16 h and apoptotic cells (propidium iodine positive and Annexin-V positive) were assessed by flow cytometry. Data are presented as mean±sem. Significance is expressed as *p<0.05 compared to 0 h time-point.

The mark [6] stands for this setting: cysteine-reactive fragment 50 μM.

As to `C=CC(=O)Nc1ccc(Oc2ccc(Cl)cc2)cc1` [DKM 3-30, N-(4-(4-chlorophenoxy)phenyl)acrylamide], the “nuclear envelope morphology following mitosis” value in test [1] was “aberrant nuclei that were bisected by GFP-Sec61β positive structures”. The duration of mitosis in test [1] (control cells ~50-60 min) is 3 to 4 h. Besides, the viability at 50 µM in test [2] (Homo sapiens, SW-620, cysteine-reactive fragment 50 μM, read-out: SW620 survival Ave) came to 31%. Also, the “SW620 survival Ave” value in test [2] (setting [6]) is “significantly impaired”. Also, the activity at 50 µM in test [3] (Homo sapiens, SW-620, cysteine-reactive fragment 50 μM, read-out: SW620 proliferation Ave) came to 54%. The “SW620 proliferation Ave” value in test [3] (setting [6]) is given as “significantly impaired”. The “ER morphology in U2OS cells” value in test [4] (DKM 3-30 50 μM (8 hr, 16 hr, time-lapse), AMR 1-125 1 μM, YP 1-46 50 μM) was “striking loss of nearly all peripheral ER tubules and an increase in ER that exhibited sheet-like morphology”. Besides, the “time at which alterations in the ER morphology were evident” value in test [4] (DKM 3-30 50 μM, time-lapse imaging) was 0.5-1 hr. Moreover, in test [5], the “apoptosis in MEF cells expressing human RTN4-GFP” value is listed as “induces apoptosis”.

These data come from US20200062696A1, “COMPOSITIONS AND METHODS FOR INHIBITING RETICULON 4” (THE REGENTS OF THE UNIVERSITY OF CALIFORNIA, priority 2017, published 2020).
